Data published in ChEMBL document CHEMBL1133272, “A solid-phase synthesis for beta-turn mimetics of sialyl Lewis X” (Bioorg Med Chem Lett, 2000).

Experiments:
[1] = target: T1, E-selectin (Homo sapiens, UniProt P16581); experiment: In vitro inhibitory activity of compound was determined against Selectin E binding by ELISA assay
T1 sequence (P16581 whole entry): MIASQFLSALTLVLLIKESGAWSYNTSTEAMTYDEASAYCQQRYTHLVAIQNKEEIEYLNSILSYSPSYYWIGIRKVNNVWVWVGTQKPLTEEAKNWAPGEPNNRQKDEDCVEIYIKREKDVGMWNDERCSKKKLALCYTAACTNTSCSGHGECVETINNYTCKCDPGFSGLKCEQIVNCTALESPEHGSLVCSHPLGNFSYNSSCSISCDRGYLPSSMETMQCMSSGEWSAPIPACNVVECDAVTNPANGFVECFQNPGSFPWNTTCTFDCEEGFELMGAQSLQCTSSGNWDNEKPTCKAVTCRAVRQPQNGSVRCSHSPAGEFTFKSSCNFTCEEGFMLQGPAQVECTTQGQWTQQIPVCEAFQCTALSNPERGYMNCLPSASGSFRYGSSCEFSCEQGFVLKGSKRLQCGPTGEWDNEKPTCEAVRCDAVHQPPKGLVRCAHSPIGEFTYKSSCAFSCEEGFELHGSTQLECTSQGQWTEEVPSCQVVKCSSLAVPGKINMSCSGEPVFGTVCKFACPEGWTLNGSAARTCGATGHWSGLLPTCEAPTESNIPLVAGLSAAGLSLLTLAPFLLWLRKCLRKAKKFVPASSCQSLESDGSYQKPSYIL

[2] = target: T2, L-selectin (Homo sapiens, UniProt P14151); experiment: In vitro inhibitory activity of compound was determined against Selectin L binding by ELISA assay
T2 sequence (P14151 whole entry): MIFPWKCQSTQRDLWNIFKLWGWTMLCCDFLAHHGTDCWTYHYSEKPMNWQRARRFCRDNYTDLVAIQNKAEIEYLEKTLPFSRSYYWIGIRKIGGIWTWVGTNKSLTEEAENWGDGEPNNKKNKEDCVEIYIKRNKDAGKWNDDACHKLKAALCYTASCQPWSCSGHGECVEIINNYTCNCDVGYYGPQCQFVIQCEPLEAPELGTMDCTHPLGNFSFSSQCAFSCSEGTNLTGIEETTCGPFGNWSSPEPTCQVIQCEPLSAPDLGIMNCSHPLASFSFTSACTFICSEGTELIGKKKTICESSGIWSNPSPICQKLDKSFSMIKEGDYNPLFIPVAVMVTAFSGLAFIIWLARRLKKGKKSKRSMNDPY

[3] = target: T3, P-selectin (Homo sapiens, UniProt P16109); experiment: In vitro inhibitory activity of compound was determined against Selectin P binding by ELISA assay
T3 sequence (P16109 whole entry): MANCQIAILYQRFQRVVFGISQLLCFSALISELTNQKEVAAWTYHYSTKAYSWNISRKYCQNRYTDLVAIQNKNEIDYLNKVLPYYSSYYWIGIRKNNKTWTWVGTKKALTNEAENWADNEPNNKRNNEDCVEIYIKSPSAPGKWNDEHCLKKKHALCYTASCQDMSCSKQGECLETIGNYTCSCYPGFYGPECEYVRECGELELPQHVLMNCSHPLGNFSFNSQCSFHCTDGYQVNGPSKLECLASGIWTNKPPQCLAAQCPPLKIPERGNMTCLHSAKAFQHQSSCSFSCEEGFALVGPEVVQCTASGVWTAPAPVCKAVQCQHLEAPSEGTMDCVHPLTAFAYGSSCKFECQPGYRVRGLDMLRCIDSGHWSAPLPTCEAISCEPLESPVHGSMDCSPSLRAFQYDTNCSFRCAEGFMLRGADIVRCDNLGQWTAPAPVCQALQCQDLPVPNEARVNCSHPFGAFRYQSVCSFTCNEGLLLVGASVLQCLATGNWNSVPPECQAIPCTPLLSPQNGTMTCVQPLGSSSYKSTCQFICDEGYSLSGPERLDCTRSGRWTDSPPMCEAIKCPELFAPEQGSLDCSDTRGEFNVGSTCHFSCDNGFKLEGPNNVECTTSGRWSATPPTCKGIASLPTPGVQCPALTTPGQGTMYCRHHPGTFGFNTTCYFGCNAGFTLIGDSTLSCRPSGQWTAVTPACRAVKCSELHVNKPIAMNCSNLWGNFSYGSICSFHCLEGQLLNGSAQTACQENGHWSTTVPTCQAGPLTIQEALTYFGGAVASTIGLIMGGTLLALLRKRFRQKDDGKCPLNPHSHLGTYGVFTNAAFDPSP

Row | IC50 [1] [µM] | IC50 [2] [µM] | IC50 [3] [µM] | Structure (SMILES)
1 | 3.5 | 4 | 0.45 | CCCCCCCCCCCCCCC(CCCCCCCCCCCCCC)C(=O)N[C@@H](CO[C@@H]1O[C@@H](CO)[C@H](O)[C@H](O)[C@H]1O)C(=O)N[C@H](CCC(=O)O)C(=O)NC
2 | > 100 | 2.34 | 2.57 | CCCCCCCCCCCCCCC(CCCCCCCCCCCCCC)CN1CCCS[C@@H](CCC(=O)O)C(=O)N[C@H](CO[C@H]2O[C@H](CO)[C@@H](O)[C@@H](O)[C@@H]2O)C1=O
3 | – | > 1000 | > 1000 | CC(=O)N[C@H]1[C@H]([C@H](O)[C@H](O)CO)O[C@@](O[C@H]2[C@@H](O)[C@@H](CO)O[C@@H](O[C@@H]([C@H](O[C@@H]3O[C@@H](C)[C@@H](O)[C@@H](O)[C@@H]3O)[C@H](C=O)NC(C)=O)[C@H](O)CO)[C@@H]2O)(C(=O)O)C[C@@H]1O [SIALYL LEWIS X]
